Assay results reported in patent US20240261417A1, “SOS1 DEGRADING AGENT AND PREPARATION METHOD THEREFOR AND APPLICATION THEREOF” (SHANGHAI LEADINGTAC PHARMACEUTICAL CO. LTD., priority 2021, published 2024).

Target: T1, SOS1 protein (Homo sapiens, UniProt Q07889)
T1 sequence (Q07889 1-1333): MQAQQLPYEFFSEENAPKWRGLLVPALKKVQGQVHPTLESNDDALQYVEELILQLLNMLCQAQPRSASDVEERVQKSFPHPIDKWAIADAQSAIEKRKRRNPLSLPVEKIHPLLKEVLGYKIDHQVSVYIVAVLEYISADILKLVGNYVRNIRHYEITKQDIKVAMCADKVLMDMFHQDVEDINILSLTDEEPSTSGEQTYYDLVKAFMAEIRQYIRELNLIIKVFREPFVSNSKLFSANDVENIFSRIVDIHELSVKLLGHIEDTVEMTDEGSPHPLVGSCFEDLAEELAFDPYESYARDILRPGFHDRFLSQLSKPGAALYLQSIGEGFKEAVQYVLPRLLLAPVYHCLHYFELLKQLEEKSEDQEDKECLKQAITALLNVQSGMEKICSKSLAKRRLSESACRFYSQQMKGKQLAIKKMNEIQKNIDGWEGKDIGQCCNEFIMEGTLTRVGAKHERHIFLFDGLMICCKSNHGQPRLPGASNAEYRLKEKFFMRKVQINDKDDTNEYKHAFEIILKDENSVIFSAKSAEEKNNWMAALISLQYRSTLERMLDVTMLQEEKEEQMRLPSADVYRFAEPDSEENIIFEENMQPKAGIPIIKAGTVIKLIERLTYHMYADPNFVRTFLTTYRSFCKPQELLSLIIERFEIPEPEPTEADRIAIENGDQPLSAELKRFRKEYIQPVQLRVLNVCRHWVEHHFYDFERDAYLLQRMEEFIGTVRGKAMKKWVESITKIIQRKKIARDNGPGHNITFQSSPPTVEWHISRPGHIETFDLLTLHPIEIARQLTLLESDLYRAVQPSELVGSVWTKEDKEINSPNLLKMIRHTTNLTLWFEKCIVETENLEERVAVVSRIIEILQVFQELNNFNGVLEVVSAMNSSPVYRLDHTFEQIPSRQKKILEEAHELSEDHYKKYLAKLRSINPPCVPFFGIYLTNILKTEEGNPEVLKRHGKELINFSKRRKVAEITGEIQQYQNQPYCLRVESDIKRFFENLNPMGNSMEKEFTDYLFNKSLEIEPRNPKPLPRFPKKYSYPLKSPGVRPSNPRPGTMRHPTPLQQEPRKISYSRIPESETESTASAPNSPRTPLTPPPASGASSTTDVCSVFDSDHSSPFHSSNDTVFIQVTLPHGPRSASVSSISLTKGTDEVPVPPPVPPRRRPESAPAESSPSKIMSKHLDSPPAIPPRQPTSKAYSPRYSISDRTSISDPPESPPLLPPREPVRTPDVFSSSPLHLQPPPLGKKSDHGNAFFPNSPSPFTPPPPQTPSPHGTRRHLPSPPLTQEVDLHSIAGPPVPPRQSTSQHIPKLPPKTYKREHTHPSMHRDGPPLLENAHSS
Experiment: SOS1 degradation assay (Western blot), NCI-H358 cells
Type: cell-based
Design: The degradation of SOS1 by the compounds was investigated on KRAS G12C mutant human non-small cell lung cancer cells NCI-H358; host or cells: NCI-H358 (human cancer cell lines)
Conditions: SOS1 degradation, NCI-H358 cells, 24 h, Western blot; for DC50: read-out: NCI-H358 (G12C) DC50; for Dmax: read-out: NCI-H358 (G12C) Dmax
Procedure: The specific procedures were as follows:
0.95 mL of cells were seeded into each well of a 24-well cell culture plate to achieve a cell density of 5×10^5 cells/well; the cell plate was incubated in an incubator at 37° C. with 5% CO2 overnight. Then 50 μL of the compound solution after dilution was added to each of the wells with the corresponding cells, so that the final concentration of the compound was in a range of 0.03-3000 nM. […] After dosing, the cell plate was incubated in an incubator at 37° C. with 5% CO2 for 24 h. […] After the plate was left to stand on ice for 30 min, the protein lysate in each well was transferred to a 1.5 mL centrifuge tube and centrifuged at 15000 g for 20 min at 4° C. The cell lysate supernatant after centrifugation was cryopreserved at −80° C. for testing and was used for determining the degradation level of the SOS1 protein by a WB method. The concentration of total protein in the cell lysate supernatant was determined using the BCA Protein Quantification Kit (Tiangen, PA115-02).
The concentration of total protein in the cell lysate was determined by BCA. The total protein was adjusted to 0.5 μg/μL with PBS and 5× SDS-PAGE protein loading buffer (Beyotime, P0015L), incubated in a water bath at 100° C. for 15 min, incubated in an ice bath on ice for 5 min, centrifuged at 14000 g for 1 min at 4° C., and mixed well as a loading sample for WB. Protein electrophoresis was performed on a precast gel (KeyGEN, KGMGO10W15) with a loading volume of 10 μL (total protein: 5 μg) using a Tris-MOPS-SDS running solution (Adamas, P1598253) at a constant voltage of 120 V for 55 min. After the electrophoresis, the protein on the gel strip was transferred to a PVDF membrane at a constant current of 250 mA for 65 min. After the membrane transfer, the membrane was incubated in 1× QuickBlock blocking buffer (Beyotime, P0235) for 30 min at room temperature. […] The protein map was subjected to gray value analysis by the chemiluminescence imaging system from Clinx. […] Then the degradation rate was calculated by comparing the gray correction value with the gray correction value of the control group. Then nonlinear curve fitting was performed by GraphPad Prism 8 in the logarithmic concentration-inhibition rate to obtain the DC50 and Dmax values of the compounds.

| DC50 | Dmax | SMILES | NCI-H358 (G12C) Dmax |
| --- | --- | --- | --- |
| 1000 to 10000 nM | < 30% | COc1cc2nc(C)nc(N[C@H](C)c3cc(N)cc(C(F)(F)F)c3)c2cc1[C@H]1CC[C@H](C(=O)N2CCN(CC#CC3CCN(C(=O)c4ccc(Cl)c(N5CCC(=O)NC5=O)c4)CC3)CC2)CC1 [Example 27, 1-(5-(4-(3-(4-((1R,4R)-4-(4-(((R)-1-(3-amino-5-(trifluoromethyl)phenyl)ethyl)amino)-7-methoxy-2-methylquinazolin-6-yl)cyclohexane-1-carbonyl)piperazin-1-yl)prop-1-yn-1-yl)piperidine-1-carbonyl)-2-chlorophenyl)dihydropyrimidine-2,4(1H,3H)-dione] | – |
| < 50 nM | 80 to 100% | COc1cc2nc(C)nc(N[C@H](C)c3cc(N)cc(C(F)(F)F)c3)c2cc1[C@H]1CC[C@H](C(=O)N2CCN(CCCCC3CCN(C(=O)c4ccc(Cl)c(N5CCC(=O)NC5=O)c4)CC3)CC2)CC1 [Example 29, 1-(5-(4-(4-(4-((1R,4R)-4-(4-(((R)-1-(3-amino-5-(trifluoromethyl)phenyl)ethyl)amino)-7-methoxy-2-methylquinazolin-6-yl)cyclohexane-1-carbonyl)piperazin-1-yl)butyl)piperidine-1-carbonyl)-2-chlorophenyl)dihydropyrimidine-2,4(1H,3H)-dione] | – |
| 1000 to 10000 nM | < 30% | COc1cc2nc(C)nc(N[C@H](C)c3cc(N)cc(C(F)(F)F)c3)c2cc1[C@H]1CC[C@H](C(=O)N2CCN(CCOC3CCN(C(=O)c4ccc(Cl)c(N5CCC(=O)NC5=O)c4)CC3)CC2)CC1 [Example 30, 1-(5-(4-(2-(4-((1R,4R)-4-(4-(((R)-1-(3-amino-5-(trifluoromethyl)phenyl)ethyl)amino)-7-methoxy-2-methylquinazolin-6-yl)cyclohexane-1-carbonyl)piperazin-1-yl)ethoxy)piperidine-1-carbonyl)-2-chlorophenyl)dihydropyrimidine-2,4(1H,3H)-dione] | – |
| 1000 to 10000 nM | < 30% | COc1cc2nc(C)nc(N[C@H](C)c3cc(N)cc(C(F)(F)F)c3)c2cc1O[C@H]1CC[C@H](C(=O)N2CCN(CC3CCC4(CC3)CCN(C(=O)c3ccc(Cl)c(N5CCC(=O)NC5=O)c3)CC4)CC2)CC1 [Example 31, 1-(5-(9-((4-((1R,4R)-4-((4-(((R)-1-(3-amino-5-(trifluoromethyl)phenyl)ethyl)amino)-7-methoxy-2-methylquinazolin-6-yl)oxo)cyclohexane-1-carbonyl)piperazin-1-yl)methyl)-3-azaspiro[5.5]undecane-3-carbonyl)-2-chlorophenyl)dihydropyrimidine-2,4(1H,3H)-dione] | – |

Continued, molecule first:

| SMILES | DC50 | Dmax | NCI-H358 (G12C) Dmax |
| --- | --- | --- | --- |
| COc1cc2nc(C)nc(N[C@H](C)c3cc(N)cc(C(F)(F)F)c3)c2cc1[C@H]1CC[C@H](C(=O)N(C)CCOCC#CC2CCN(C(=O)c3ccc(Cl)c(N4CCC(=O)NC4=O)c3)CC2)CC1 [Example 26, (1R,4R)-4-(4-(((R)-1-(3-amino-5-(trifluoromethyl)phenyl)ethyl)amino)-7-methoxy-2-methylquinazolin-6-yl)-N-(2-((3-(1-(4-chloro-3-(2,4-dioxotetrahydropyrimidin-1(2H)-yl)benzoyl)piperidin-4-yl)prop-2-yn-1-yl)oxo)ethyl)-N-methylcyclohexane-1-carboxamide] | 1000 to 10000 nM | – | D (when Dmax (%)<30, the level was D) |
| COc1cc2nc(C)nc(N[C@H](C)c3cc(N)cc(C(F)(F)F)c3)c2cc1C1=CCC(C(=O)N2CCC(CCOCC3CCN(C(=O)c4ccc(OC)c(N5CCC(=O)NC5=O)c4)CC3)CC2)CC1 (stereo partly drawn) [Example 32, 1-(5-(4-((2-(1-(4-(4-(((R)-1-(3-amino-5-(trifluoromethyl)phenyl)ethyl)amino)-7-methoxy-2-methylquinazolin-6-yl)cyclohex-3-ene-1-carbonyl)piperidin-4-yl)ethoxy)methyl)piperidine-1-carbonyl)-2-methoxyphenyl)dihydropyrimidine-2,4(1H,3H)-dione] | < 50 nM | 80 to 100% | – |
| COc1cc2nc(C)nc(N[C@@H](C)c3cc(N)cc(C(F)(F)F)c3)c2cc1[C@H]1CC[C@@H](C(=O)N2CCN(CCC3CCC4(CC3)CCN(C(=O)c3ccc(Cl)c(N5CCC(=O)NC5=O)c3)CC4)CC2)CC1 [Example 34, 1-(5-(9-(2-(4-((1S,4S)-4-(4-(((R)-1-(3-amino-5-(trifluoromethyl)phenyl)ethyl)amino)-7-methoxy-2-methylquinazolin-6-yl)cyclohexane-1-carbonyl)piperazin-1-yl)ethyl)-3-azaspiro[5.5]undecane-3-carbonyl)-2-chlorophenyl)dihydropyrimidine-2,4(1H,3H)-dione] | – | – | C (when 30≤Dmax (%)<50, the level was C) |
| CCNc1cc([C@@H](C)Nc2nc(C)nc3cc(OC)c([C@H]4CC[C@H](C(=O)N5CCN(CC6CCC7(CC6)CCN(C(=O)c6ccc(Cl)c(N8CCC(=O)NC8=O)c6)CC7)CC5)CC4)cc23)cc(C(F)(F)F)c1 [Example 35, 1-(2-chloro-5-(9-((4-((1R,4R)-4-(4-(((R)-1-(3-(ethylamino)-5-(trifluoromethyl)phenyl)ethyl)amino)-7-methoxy-2-methylquinazolin-6-yl)cyclohexane-1-carbonyl)piperazin-1-yl)methyl)-3-azaspiro[5.5]undecane-3-carbonyl)phenyl)dihydropyrimidine-2,4(1H,3H)-dione] | 1000 to 10000 nM | – | C (when 30≤Dmax (%)<50, the level was C) |
| COc1ccc(C(=O)N2CCC(COCCC3CCN(C(=O)[C@H]4CC[C@H](c5cc6c(N[C@H](C)c7cc(N)cc(C(F)(F)F)c7)nc(C)nc6cn5)CC4)CC3)CC2)cc1N1CCC(=O)NC1=O [Example 36, 1-(5-(4-((2-(1-((1R,4R)-4-(4-(((R)-1-(3-amino-5-(trifluoromethyl)phenyl)ethyl)amino)-2-methylpyrido[3,4-d]pyrimidin-6-yl)cyclohexane-1-carbonyl)piperidin-4-yl)ethoxy)methyl)piperidine-1-carbonyl)-2-methoxyphenyl)dihydropyrimidine-2,4(1H,3H)-dione] | 100 to 500 nM | 50 to 80% | – |
